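48-hour exposure; five concentrations; linearly interpolated endpoints. GI50: concentration for 50% inhibition of growth. At the TGI there is no net growth.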
Columns and labels:
Experiment in all cases: growth of human tumour cells (NCI), 48 h
HL-60(TB) leukemia = system: HL-60(TB) leukemia
M14 melanoma = system: M14 melanoma
MALME-3M melanoma = system: MALME-3M melanoma
NCI/ADR-RES ovarian = system: NCI/ADR-RES ovarian
PC-3 prostate = system: PC-3 prostate
SF-268 CNS = system: SF-268 CNS
SK-MEL-28 melanoma = system: SK-MEL-28 melanoma
SNB-19 CNS = system: SNB-19 CNS
UACC-257 melanoma = system: UACC-257 melanoma
MOLT-4 leukemia = system: MOLT-4 leukemia

Compound	GI50 (HL-60(TB) leukemia) [µM]	TGI (HL-60(TB) leukemia) [µM]	GI50 (M14 melanoma) [µM]	TGI (M14 melanoma) [µM]	GI50 (MALME-3M melanoma) [µM]	TGI (MALME-3M melanoma) [µM]	GI50 (NCI/ADR-RES ovarian) [µM]	TGI (NCI/ADR-RES ovarian) [µM]	GI50 (PC-3 prostate) [µM]	TGI (PC-3 prostate) [µM]	GI50 (SF-268 CNS) [µM]	TGI (SF-268 CNS) [µM]	GI50 (SK-MEL-28 melanoma) [µM]	TGI (SK-MEL-28 melanoma) [µM]	GI50 (SNB-19 CNS) [µM]	TGI (SNB-19 CNS) [µM]	GI50 (UACC-257 melanoma) [µM]	TGI (UACC-257 melanoma) [µM]	TGI (MOLT-4 leukemia) [µM]	GI50 (MOLT-4 leukemia) [µM]
O=C(c1cc(-c2cc3c(cc2C(=O)N2Cc4ccccc4C[C@H]2CN2CCOCC2)OCO3)n2c1CCCC2)N(c1ccccc1)c1ccc(O)cc1	2.62	7.16	18.1	> 100	15.6	> 100	6.5	> 100	2.99	> 100	7.65	> 100	11.4	> 100	7.13	> 100	18.9	> 100	–	–
CNC1NC(=O)c2ccccc2N1Cc1ccc(F)cc1 (stereo not drawn)	–	> 100	–	> 100	–	> 100	–	> 100	–	> 100	–	> 100	–	> 100	–	> 100	–	> 100	> 100	–
CCC(C)/C=C(C)/C=C/C(=O)c1c(O)c(-c2ccc(O)cc2)c[nH]c1=O (stereo not drawn)	2.43	21.2	6.58	19.7	2.36	14.1	3.53	27.7	3.33	14.4	3.19	14	–	–	5.43	19.8	4.25	16.4	15.1	2.73
Cc1ccc2c(=O)[nH]sc2c1	–	30.8	–	23.9	–	45.6	–	55.8	–	29.1	–	39	–	38.4	–	> 100	–	44.1	23.8	–
CN1CCN(Cc2ccc(NC(=O)c3[nH]ncc3Nc3ncnc4c3CCC4)cc2)CC1	0.728	3.29	0.948	13.4	3.26	8.06	6.17	45.1	1.96	12.1	2.14	7.78	2.61	13.1	2.87	14.8	3.49	15.4	3	0.447
Cn1c2ccccc2c2nnc(N/N=C/c3ccccn3)nc21	0.222	3.85	0.285	–	0.334	2.26	0.336	8.89	1.44	> 100	0.343	–	0.494	26.6	0.412	> 100	0.433	–	–	0.271
O=c1[nH]nc2c3c(cccc13)NC(CN1Cc3ccccc3C1)=N2	9.13	> 100	4.08	> 100	49.1	> 100	25.7	> 100	7.23	> 100	7.4	> 100	15.3	> 100	52.3	> 100	37	> 100	> 100	4.56
O=C1C(Cl)=C(N2CCOCC2)C(=O)c2ccccc21	2.33	5.32	5.62	18.7	2.55	4.85	3.11	13	9.38	23.7	4.88	16.8	2.69	6.32	16.1	30.1	1.62	3.03	–	–
O=C(Nc1ccc(Nc2ccncc2)cc1)c1ccc(Nc2ccnc3ccc([N+](=O)[O-])cc23)cc1	> 100	> 100	> 100	> 100	–	–	> 100	> 100	> 100	> 100	29.9	> 100	63.8	> 100	> 100	> 100	> 100	> 100	> 100	> 100
Cc1c(Cl)cccc1NC(=O)c1sc2nc3c(cc2c1N)CCCCCC3	0.158	3.4	0.154	> 50	–	–	0.164	15.7	0.174	> 50	0.821	> 50	4.59	> 50	0.258	28.5	–	–	> 50	0.265
N#CSCC1CC(O)(c2ccccc2)C(c2ccccc2)C(c2ccc(F)cc2)O1 (stereo not drawn)	0.672	2.96	1.84	4.09	2.08	5.02	3.13	11.9	2.14	11.3	2.57	7.25	2.93	8.79	19	> 70.3	3.66	13.5	4.51	0.676
Fc1ccc(-c2nnc3sc(-c4cccc(Cl)c4)nn23)cc1Cl	> 100	> 100	> 100	> 100	> 100	> 100	> 100	> 100	> 100	> 100	> 100	> 100	> 100	> 100	> 100	> 100	> 100	> 100	> 100	> 100
C#CC[C@H](c1nc2cc(Cl)ccc2c(=O)n1Nc1ccccc1)N(CCCN)C(=O)c1cccc(Cl)c1F	0.13	0.605	0.3	1.63	1.05	2.45	14.2	30	0.196	3.16	0.214	2.61	0.765	2.22	0.52	7.85	1.02	2.37	2.8	0.264
CO/N=C1/NC(=O)/C(=C/c2ccc3ncccc3c2)S1	13.8	> 25	9.85	> 25	13.9	> 25	> 25	> 25	11.7	> 25	> 25	> 25	19.5	> 25	11.6	> 25	18	> 25	> 25	16.1
COc1cccc(/C=C/C(=O)c2cc3c(N)c(C(=O)Nc4cccc(Cl)c4C)sc3nc2C)c1	0.927	2.84	1.02	2.78	1.34	7.76	0.883	3.08	1.43	7.34	1.57	14.4	1.26	4.7	1.29	6.18	3.48	20.9	> 50	1.26
NC(=NC1CCCCCC1)c1ccc(N2CCN(c3ccc(C(N)=NC4CCCCCC4)cc3)CC2)cc1	14.1	> 50	8.74	30.5	–	–	> 50	> 50	12.1	> 50	6.92	15	10.7	22.4	10.1	27.1	9.75	> 50	> 50	23.9
Cl.Fc1c[c-]c(-c2ccccn2)c(F)c1.[Pt].c1ccc([PH+](CC[PH+](c2ccccc2)c2ccccc2)c2ccccc2)cc1	0.0563	0.319	0.0741	1.22	0.061	0.409	1.01	4.18	0.0514	1.09	–	–	0.167	1.4	0.0656	1.26	0.165	0.975	1.29	0.291
COc1ccc(/C=C(\C#N)c2cc(OC)c3c(c2)OCO3)cc1	0.0128	54.7	–	–	–	–	< 0.01	0.58	0.0101	38.1	< 0.01	52.6	0.0117	44.8	0.0278	> 100	17	57	> 100	0.0402
CCOC(=O)C#Cc1ccc(C#CC(=O)OCC)cc1	–	6.34	–	> 20.7	–	21.3	–	15.3	–	> 28.4	–	> 22.4	–	> 20.9	–	> 38.3	–	> 56.4	–	–
NC1CCC[C@@H](O)[C@H]1O (stereo partly drawn)	–	> 100	–	> 100	–	> 100	–	> 100	–	> 100	–	> 100	–	> 100	–	> 100	–	> 100	–	–
NC(=O)C1=C(c2ccccc2)c2ccccc2C1=O	–	18.1	–	36.8	–	–	–	38	–	32.7	–	44.3	–	44.1	–	35.4	–	27.1	14.9	–

From PubChem BioAssay (NCI)
